Laboratory results published in patent US10590422B2, “Anticancer therapeutic intervention” (PHYZAT BIOPHARMACEUTICALS, LDA., priority 2017, dated 2020).
d = 2'-deoxy (DNA); r = 2'-OH (RNA)

What was measured:
[1] = test system: human colon cancer HTC-116 cells; assay: Cell proliferation assay (calcein-AM) in human colon cancer HTC-116 cells; format: cell-based; details: for cell proliferation / proliferation: treatment 6 h; for cell proliferation: 72 h exposure, FIG. 14; for proliferation: at 72 h, 0.17% Lipofectamine 2000 or 0.1% Injectin, FIGS. 19B and 20B
Description: (§1) SK-HEP-1, T24, HT-1080 and HCT-116 cell lines were maintained in a humidified atmosphere of 5% CO2 at 37° C. SK-HEP-1 cells were grown in RPMI-1640 (Sigma, St. Louis, Mo.) supplemented with 20% fetal bovine serum (FBS) (Gibco, UK), 100 U/mL penicillin G, 0.25 μg/mL amphotericin B, 100 μg/mL streptomycin (Gibco, UK), 25 mM sodium bicarbonate (Merck, Germany) and 25 mM N-2-hydroxyethylpiperazine-N′-2-ethanosulfonic acid (HEPES) (Sigma, St. Louis, Mo.). T24 and HT-1080 cells were grown, respectively, in Dulbecco's Modified Eagle's Medium (DMEM)—high glucose (Sigma, St. Louis, Mo.) and DMEM—low glucose (Sigma, St. Louis, Mo.), supplemented with 10% FBS (Gibco, UK), 100 U/mL penicillin G, 0.25 μg/mL amphotericin B, 100 μg/mL streptomycin (Gibco, UK), 25 mM sodium bicarbonate (Merck, Germany) and 25 mM HEPES (Sigma, St. Louis, Mo.). HCT-116 cells were grown in McCoy's 5A (Sigma, St. Louis, Mo.) supplemented with 10% FBS (Gibco, UK), 100 U/mL penicillin G, 0.25 μg/mL amphotericin B, 100 μg/mL streptomycin (Gibco, UK), 25 mM sodium bicarbonate (Merck, Germany) and 25 mM HEPES (Sigma, St. Louis, Mo.). For all cell lines the medium was changed every 2 days, and cells reached confluence 3-4 days after initial seeding. For subculturing, cells were dissociated with 0.25% trypsin-ethylenediaminetetraacetic acid (EDTA) (Sigma, St. Louis, Mo.), split 1:15 or 1:20 and subcultured in a 21-cm^2 growth area (Sarstedt, Germany).
Cell proliferation was measured using calcein-AM (Thermo Fisher Scientific, USA). The membrane permeant calcein-AM, a nonfluorescent dye, is taken up and converted by intracellular esterases to membrane impermeant calcein, which emits green fluorescence. Cells were plated in 96-well plates with black walls clear bottom (BD Biosciences, USA) and incubated 24 h under normal growth conditions. Cells were incubated with test items at 37° C., 5% C02. After the incubation period, serum and antibiotic was restored and cells were further incubated at normal conditions during 72 h. After treatment with test substances or vehicle, cells were washed twice with Hanks' medium and loaded with 2 μM calcein-AM in Hanks' medium, at 37° C. for 30 min. Fluorescence was measured at 485 nm excitation and 530 nm emission wavelengths in a microplate spectrofluorometer (Gemini EM, Molecular Devices). Nine consecutive fluorescence measurements are performed per well, to allow fluorescence readings in the whole area of the well, which was then considered for the calculation of mean fluorescence per well. To determine minimum staining for calcein (calceinmin), eight wells were treated with ethanol 30 min before calcein-AM addition. The percent cell number is calculated as [(calceinsample)/(calceincontrol)]×100.

[2] = test system: LAT1 mRNA; assay: LAT1 gene expression (RT-qPCR, relative to GAPDH) after LAT1 gene silencing in SK-HEP-1 cells; format: cell-based, human; details: at 24 h; for LAT1 mRNA relative abundance: liver carcinoma SK-HEP-1 cells, 10 nM siRNA, treatment 6 h, Lipofectamine 2000, FIG. 4A
Description: as §1
(§2) Total RNA was isolated and purified using the SV Total RNA Isolation System (Promega, USA) according to manufacturer's instructions. RNA quality and concentration were verified in the NanoDrop ND1000 Spectrophotometer (Thermo Scientific, USA), and RNA integrity and genomic DNA contamination were evaluated by agarose gel electrophoresis. Total RNA (1 μg) was converted into cDNA using the Maxima Scientific First Strand cDNA Synthesis Kit for RT-qPCR (Thermo Scientific, USA), according to instructions. The following protocol was used: 1st step, 10 min at 25° C.; 2nd step, 15 min at 50° C.; 3rd step, 5 min at 85° C. cDNA was used for qPCR analysis using Maxima SYBR Green qPCR Master Mix (Thermo Scientific, USA) in the StepOnePlus instrument (Applied Biosystems, USA). QuantiTect Primer Assay for LAT1 and ASCT2 and for the endogenous control gene GAPDH (Quiagen, Germany) were used. The qPCR reaction was performed in 96-well PCR plates (Sarstedt, Germany) as follows: one cycle of 10 min at 95° C., followed by 40 PCR cycles at 95° C. 15 s and 60° C. 60 s. […] No template controls were always evaluated for each target gene. Quantification cycle (Cq) values were generated automatically by the StepOnePlus 2.3 Software and the ratio of the target gene was expressed in comparison to the endogenous control gene GAPDH.
(§3) Cells were plated in 24-well (Sarstedt, Germany) or 6-well plates (Sarstedt, Germany) or 96-well plates with black walls clear bottom (BD Biosciences, USA) and incubated 24 h under normal growth conditions. siRNAs against LAT1 and transfection agent were diluted at desired concentrations and mixed according to transfection agent manufacturer's instructions. The mixture was incubated 20 min at RT for siRNA-complex formation, after which it was added to the cells and incubated at 37° C., 5% CO2. After the incubation period, serum and antibiotic was restored and cells were further incubated at normal conditions for the desired time points until evaluation of LAT1 activity or LAT1 expression (immunoblotting and RT-qPCR).

[3] = test system: LAT1; assay: LAT1 activity: [^14C]-L-leucine uptake in SK-HEP-1 cells after LAT1 gene silencing; format: cell-based, human; details: for inhibiting sodium-independent [^14C]-L-leucine transport: LAT1 siRNA, general statement, conditions not given; for [^14C]-L-leucine (0.25 μM) uptake at initial rate of uptake (1 min): liver carcinoma SK-HEP-1 cells, 10 nM siRNA, treatment 6 h, at 24 h and 48 h, 0.4% Lipofectamine 2000, FIGS. 5A and 5C
Description: Cells were plated in 24-well plates (Sarstedt, Germany) and grown until confluence was reached. On the day of the experiment, cell culture medium was aspirated and cells were preincubated for 15 min in Hanks' medium (NaCl 140 mM, KCl 5 mM, MgSO4.7H2O 0.8 mM, K2HPO4 0.33 mM, KH2PO4 0.44 mM, MgCl2.6H2O 1 mM, CaCl2) 0.025 mM, Tris-HCl 9.75 mM, pH 7.4). Uptake was initiated by addition of Hanks' medium with 0.25 μM [^14C]-L-leucine in the absence and in the presence of 3 mM unlabeled L-leucine. During preincubation and incubation cells were continuously shaken and maintained at 37° C. Uptake was terminated after 1 min by rapid removal of uptake solution by means of a vacuum pump connected to a Pasteur pipette, followed by a rapid wash with Hanks' medium. Subsequently, cells were solubilized in 0.1% vol/vol Triton X-100 (dissolved in 5 mM Tris-HCl, pH 7.4), and radioactivity was measured by liquid scintillation counting.
as §3

[4] = test system: LAT1 mRNA; assay: LAT1 gene expression (RT-qPCR) after LAT1 gene silencing in human colon cancer HTC-116 cells; format: cell-based; details: treatment 6 h, 72 h, 0.17% Lipofectamine 2000 or 0.1% Injectin, FIG. 19A
Description: as §1, §2, §3

[5] = test system: ASCT2 mRNA; assay: ASCT2 gene expression (RT-qPCR) after ASCT2 gene silencing in human colon cancer HTC-116 cells; format: cell-based; details: treatment 6 h, 72 h, 0.17% Lipofectamine 2000 or 0.1% Injectin, FIG. 20A
Description: as §1, §2
as §3, with “ASCT2” for “LAT1”

| Substance | cell proliferation ([1]; 0.1% Injectin) | LAT1 mRNA relative abundance [2] | inhibiting sodium-independent [^14C]-L-leucine transport [3] | [^14C]-L-leucine (0.25 μM) uptake at initial rate of uptake (1 min) [3] | proliferation [1] | also measured |
| --- | --- | --- | --- | --- | --- | --- |
| 61/395/396 (chain 1 UGAACUGCUACAGCGUGAATT; chain 2 UUCACUCUGUAGCAGUUCACG; siRNA; chain 1: sugars from the 5' end r19 d2, backbone not given here; chain 2: RNA, backbone not given here) | decreased |  |  |  |  |  |
| 61 (CGTGAACTGCTACAGCGTGAA; chemistry not given here) [compound 61] |  | decreased | particularly effective | decreased |  |  |
| 34 (AAGGACATCTTCTCCGTCATC; chemistry not given here) [compound 34] | decreased | decreased | particularly effective | decreased |  |  |
| 58/389/412 (sense UCGCCACCUACCUGCUCAATT; antisense UUGAGCAGGUAGGUGGCGAUG; siRNA; sense: sugars from the 5' end r19 d2, backbone not given here; antisense: RNA, backbone not given here) | decreased |  |  |  |  | Effect on cell proliferation compared with SEQ ID NO: 58 ([1]; 72 h, 0.1% Injectin, p<0.05): significantly greater |
| 58 (CTTCGCCACCTACCTGCTCAA; chemistry not given here) [compound 58] |  | decreased | particularly effective | decreased |  | Effect on LAT1 mRNA relative abundance compared with SEQ ID NO: 34 ([2]; SK-HEP-1 cells, 10 nM, p<0.05): significantly greater; Effect on [^14C]-L-leucine uptake compared with SEQ ID NO: 34 ([3]; SK-HEP-1 cells, 10 nM, p<0.05): significantly greater; Effect on cell proliferation compared with SEQ ID NO: 34 ([1]; 72 h, 0.1% Injectin, p<0.05): significantly greater |
| 278/407/408 (sense CCACGGUCGCCUCUGAGAATT; antisense UUCUCAGAGGCGACCGUGGCA; siRNA; sense: sugars from the 5' end r19 d2, backbone not given here; antisense: RNA, backbone not given here) | decreased |  |  |  |  | Effect on cell proliferation compared with SEQ ID NO: 278/367/408 ([1]; 72 h, 0.1% Injectin, p<0.05): significantly greater |
| 6 (AACATCACGCTGCTCAACGGC; chemistry not given here) [compound 6] | decreased | decreased | particularly effective | decreased |  |  |
| 267/401/402 (sense GGUCCUGUACCGUCCUCAATT; antisense UUGAGGACGGUACAGGACCGG; siRNA; sense: sugars from the 5' end r19 d2, backbone not given here; antisense: RNA, backbone not given here) | decreased |  |  |  |  | Effect on cell proliferation compared with SEQ ID NO: 267/356/402 ([1]; 72 h, 0.1% Injectin, p<0.05): significantly greater |
| 58/389/390 (sense UCGCCACCUACCUGCUCAATT; antisense UUGAGCAGGUAGGUGGCGATT; siRNA; sugars by position and backbone not given here; further chemistry not fully specified) | decreased |  |  |  | significantly decreased | LAT1 mRNA relative abundance [4]: significantly decreased; Effect on cell proliferation compared with SEQ ID NO: 58 ([1]; 72 h, 0.1% Injectin, p<0.05): significantly greater |
| 61/393/394 (chain 1 UGAACUGCUACAGCGUGAATT; chain 2 UUCACUCUGUAGCAGUUCATT; siRNA; sugars by position and backbone not given here; further chemistry not fully specified) | decreased |  |  |  | significantly decreased | LAT1 mRNA relative abundance [4]: significantly decreased |
| 267/399/400 (sense GGUCCUGUACCGUCCUCAATT; antisense UUGAGGACGGUACAGGACCTT; siRNA; sugars by position and backbone not given here; further chemistry not fully specified) | decreased |  |  |  | significantly decreased | ASCT2 mRNA relative abundance [5]: significantly decreased |
| 22 (AACATTGTGCTGGCATTATAC; chemistry not given here) [compound 22] | decreased | decreased | particularly effective | decreased |  |  |
| 278/405/406 (sense CCACGGUCGCCUCUGAGAATT; antisense UUCUCAGAGGCGACCGUGGTT; siRNA; sugars by position and backbone not given here; further chemistry not fully specified) | decreased |  |  |  | significantly decreased | Effect on cell proliferation compared with SEQ ID NO: 278/367/408 ([1]; 72 h, 0.1% Injectin, p<0.05): significantly greater; ASCT2 mRNA relative abundance [5]: significantly decreased |
